Measurements published in PMC13195669, “GPR3 Ligands Discovered through Combined Virtual and Conformational Biosensor-Based Screening” (Journal of the American Chemical Society, 2026).

Target: T1, GPR3 (Homo sapiens, UniProt P46089)
T1 construct: host or cells: HEK293A, transient
Test: FRET/BRET cAMP biosensor in HEK293A cells cotransfected with GPR3
Assay type: cell-based
Conditions: for GPR3-dependent change in cAMP: cAMP biosensor, pcDNA vs GPR3 transfected HEK293A
From the text: With the first GPR3 ligands identified by using a conformational readout in our hands, we next wanted to understand whether these compounds could have been detected in a cAMP-based assay, which has been used extensively in the past to screen for GPR3 ligands. We therefore tested rac-VH1/52, VH2/93 and VH3/115 in cells expressing a cAMP biosensor.
3 Effect of rac-VH1/52, VH2/93 and VH3/115 on GPR3-dependent cAMP production. (a–c) Vehicle-corrected BRET changes induced by rac-VH1/52 (a), VH2/93 (b) or VH3/115 (c) in HEK293A cells transiently transfected with a cAMP BRET sensor along with pcDNA or GPR3. […] Statistical significance was tested using Two-Way ANOVA followed by Sidak multiple comparison (*: […]; **: p < 0.01). […]
Plasmids and molecular cloning
The H187-EPAC-FRET sensor7 was kindly provided by K. Jalink (The Netherlands Cancer Institute, Amsterdam, The Nether-lands). The BRET-based cAMP sensor CAMYEL8 was kindly provided by Laura Humphrys (University of Regensburg, Regens-burg, Germany). Plasmids encoding the conformational biosensors α2AAR- and β2AR-HaloTag/Nluc9 and the Gs heterotrimer dissociation sensor10 were previously described. The expression plasmid encoding N-terminally HA-tagged GPR3 (cat. no.
#GPR003TN00) on a pcDNA3.1+ vector was obtained from the cDNA resource center (cdna.org). The Nluc and HaloTag in-serts were amplified with overhanging restriction sites from β2AAR- HaloTag/Nluc and ligated to the full-length C-terminus or inserted into icl3 of GPR3, respectively, to obtain the conformational biosensor GPR3-HaloTag/Nluc. Point mutants of GPR3-HaloTag/Nluc were generated using the GeneArt Site-directed Mutagenesis System (Thermo Fisher Scientific). All con-structs were verified by sequencing (Eurofins genomics).
Poly-D-lysine, polyethylenimin hydrochloride (linear; average Mn 20 000; PEI) , […], LPA , forskolin, NECA and bovine serum albumin (BSA) were obtained from Sigma Aldrich (Merck KGaA). Dulbecco's Modified Eagle's Medium (DMEM), Dul-becco's Phosphate -Buffered Saline (DPBS) and G -418 (Geneticin) were from Gibco. Diphenyleneiodonium chloride (DPI) and AF64394 were purchased from Tocris (Bio -Techne). The TMB (3, 3', 5, 5' tetramethyl benzidine) substrate reagent set was from BioLegend. The Nluc substrate furimazine and the red fluorescen t HaloTag dye, HaloTag® NanoBRET® 618 Ligand, were obtained in a single kit from Promega (cat. no. N1662). D-luciferin-sodium and the S1PR1 agonist III were from Med-ChemExpress. The Rluc substrate coelenterazine 400a was from NanoLight Technology (cat. no. 340 -10). White -wall, white - bottomed 96 -well, black -wall, black bottomed and transparent 96 -well microtiter plates were from Brand.
HEK293A cells were used for transient transfection and grown in Dulbecco’s modified Eagle’s medium (DMEM) supplemented with 2 mM glutamine, 10 % fetal calf serum, streptomycin (0.1 mg/mL), and penicillin (100 U/mL) at 37 °C with 5 % CO2. […]
Transient transfection and plating
Resuspended cells (300,000 cells/mL) were transfected in suspension with a total of 1 μg DNA/mL suspension using PEI (1 mg/ml stock solution; 3 μL PEI solution per μg DNA). For cAMP experiments with FRET- or BRET-based sensors, resuspended cells were transfected with 500 ng pcDNA, wildtype GPR3 or GPR3-HaloTag/Nluc constructs along with 500 ng of the FRET-or BRET-based cAMP sensor per mL cell suspension. For cAMP experiments with GloSensor™ 22F, resuspended cells were transfected with 250 ng pcDNA or GPCR along with 500 ng of a 1:1 mix of pcDNA with the GloSensor™ 22F per mL cell sus-pension. Cells mixed with the transfection reagents were seeded onto poly-D-lysine–precoated, 96-well plates and grown for 48 h at 37 °C with 5 % CO2. Stable α2AAR-, β2AR- or GPR3-HaloTag/Nluc expressing cells were seeded 24 h before the experi-ment at a density of 800,000 cells/mL into white 96-well plates. To monitor changes in BRET in with conformational GPCR […]

[1] = 30 μM pretreatment, cells coexpressing GPR3

T1 sequence (P46089 whole entry): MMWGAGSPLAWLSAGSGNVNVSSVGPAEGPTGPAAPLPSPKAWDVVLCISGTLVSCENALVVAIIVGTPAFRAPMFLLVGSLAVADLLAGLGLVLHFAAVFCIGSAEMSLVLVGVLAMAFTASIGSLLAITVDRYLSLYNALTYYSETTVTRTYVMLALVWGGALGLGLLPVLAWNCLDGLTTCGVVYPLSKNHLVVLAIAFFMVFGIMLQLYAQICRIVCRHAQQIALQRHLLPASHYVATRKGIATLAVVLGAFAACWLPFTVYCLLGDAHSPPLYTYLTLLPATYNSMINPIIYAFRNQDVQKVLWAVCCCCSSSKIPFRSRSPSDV

Row | Compound | effect of pretreatment on AF64394 response in cAMP assay [1] | effect of pretreatment on DPI-induced cAMP generation [1] | GPR3-dependent change in cAMP
1 | N=c1n(Cc2ccccc2)c2ccccc2n1CC1CC1 [compound 33] | no effect on the effect of AF64394 | inhibited DPI-induced cAMP generation | –
2 | N=c1n(Cc2ccccc2)c2ccccc2n1CC(O)COc1ccc(Cl)cc1 (stereo not shown) [compound 52] | – | – | induced GPR3-dependent changes in cAMP concentrations
3 | Cc1ccc(NC(=O)CN2CCN(C(=O)CCc3ccc(Cl)cc3)CC2)cc1 [compound 115] | – | – | modulates the conformation of GPR3 but not GPR3-dependent cAMP production
